From ChEMBL document CHEMBL1145498, “A systematic interaction map of validated kinase inhibitors with Ser/Thr kinases” (Proc Natl Acad Sci U S A, 2007) come the findings set out here.

As usually defined, the ΔTm is the change in melting temperature against a reference sample.

Assay [1] addresses 5'-AMP-activated protein kinase catalytic subunit alpha-2 (Homo sapiens) (UniProt P54646).
Assay [2] deals with Calcium/calmodulin-dependent protein kinase type II subunit alpha (Homo sapiens) (UniProt Q9UQM7).
Calcium/calmodulin-dependent protein kinase type II subunit alpha (Homo sapiens), sequence (Q9UQM7 whole entry): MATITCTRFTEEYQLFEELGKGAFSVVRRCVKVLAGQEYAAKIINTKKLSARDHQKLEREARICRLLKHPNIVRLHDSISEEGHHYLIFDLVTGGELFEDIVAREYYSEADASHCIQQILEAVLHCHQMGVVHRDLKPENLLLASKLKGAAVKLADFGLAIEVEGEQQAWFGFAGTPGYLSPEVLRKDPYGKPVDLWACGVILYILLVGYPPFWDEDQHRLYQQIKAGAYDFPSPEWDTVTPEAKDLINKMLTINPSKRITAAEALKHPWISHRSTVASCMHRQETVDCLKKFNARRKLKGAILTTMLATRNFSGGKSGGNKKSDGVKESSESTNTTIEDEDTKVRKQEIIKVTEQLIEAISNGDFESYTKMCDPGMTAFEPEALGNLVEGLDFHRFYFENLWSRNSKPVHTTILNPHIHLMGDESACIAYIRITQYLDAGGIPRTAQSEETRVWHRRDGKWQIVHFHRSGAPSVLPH
The target of assay [3] is Cyclin-dependent kinase 2 (Homo sapiens, UniProt P24941).
Assay [4] deals with Cyclin-dependent kinase-like 1 (Homo sapiens) (UniProt Q00532).
In assay [5] the target is Serine/threonine-protein kinase Chk2 (Homo sapiens, UniProt O96017).
Serine/threonine-protein kinase Chk2, sequence (O96017 whole entry): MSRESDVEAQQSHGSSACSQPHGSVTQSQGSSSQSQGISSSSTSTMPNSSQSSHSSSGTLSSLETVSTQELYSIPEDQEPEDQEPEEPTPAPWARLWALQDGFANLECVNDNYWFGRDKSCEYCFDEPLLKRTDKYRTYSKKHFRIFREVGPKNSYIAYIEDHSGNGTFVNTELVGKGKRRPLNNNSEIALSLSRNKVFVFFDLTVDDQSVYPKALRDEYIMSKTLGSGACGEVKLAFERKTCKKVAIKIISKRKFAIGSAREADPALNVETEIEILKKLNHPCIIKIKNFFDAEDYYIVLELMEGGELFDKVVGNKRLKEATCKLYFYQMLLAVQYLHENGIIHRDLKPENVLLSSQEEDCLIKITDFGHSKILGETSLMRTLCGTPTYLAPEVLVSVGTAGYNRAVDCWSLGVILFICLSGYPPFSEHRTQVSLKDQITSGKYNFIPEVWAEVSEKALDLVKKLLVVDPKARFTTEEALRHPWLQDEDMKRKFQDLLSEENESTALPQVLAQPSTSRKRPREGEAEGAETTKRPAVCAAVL
Assay [6] addresses Dual specificity protein kinase CLK3 (Homo sapiens) (UniProt P49761).
The target in assay [7] is Casein kinase I isoform gamma-2 (Homo sapiens) (UniProt P78368).
Casein kinase I isoform gamma-2 (Homo sapiens), sequence (P78368 whole entry, looked up, canonical isoform): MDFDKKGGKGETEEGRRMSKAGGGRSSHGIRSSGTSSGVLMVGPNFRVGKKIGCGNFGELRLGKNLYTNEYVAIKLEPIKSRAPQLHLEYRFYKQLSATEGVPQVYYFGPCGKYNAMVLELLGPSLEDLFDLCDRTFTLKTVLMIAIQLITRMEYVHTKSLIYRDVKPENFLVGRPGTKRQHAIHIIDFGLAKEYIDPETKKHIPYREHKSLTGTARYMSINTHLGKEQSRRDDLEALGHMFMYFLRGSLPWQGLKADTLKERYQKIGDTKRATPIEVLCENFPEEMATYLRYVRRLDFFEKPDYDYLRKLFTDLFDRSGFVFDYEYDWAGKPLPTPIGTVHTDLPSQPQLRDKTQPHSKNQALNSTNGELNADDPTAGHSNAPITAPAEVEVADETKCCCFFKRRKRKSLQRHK
Assay [8] concerns the target Casein kinase I isoform gamma-3 (Homo sapiens) (UniProt Q9Y6M4).
The target in assay [9] is Tyrosine-protein kinase JAK1 (Homo sapiens) (UniProt P23458).
In assay [10] the target is Mitogen-activated protein kinase 6 (Homo sapiens) (UniProt Q16659).
Assay [11] deals with Serine/threonine-protein kinase PAK 5 (Homo sapiens) (UniProt Q9P286).
Serine/threonine-protein kinase PAK 5 (Homo sapiens), sequence (Q9P286 whole entry, looked up): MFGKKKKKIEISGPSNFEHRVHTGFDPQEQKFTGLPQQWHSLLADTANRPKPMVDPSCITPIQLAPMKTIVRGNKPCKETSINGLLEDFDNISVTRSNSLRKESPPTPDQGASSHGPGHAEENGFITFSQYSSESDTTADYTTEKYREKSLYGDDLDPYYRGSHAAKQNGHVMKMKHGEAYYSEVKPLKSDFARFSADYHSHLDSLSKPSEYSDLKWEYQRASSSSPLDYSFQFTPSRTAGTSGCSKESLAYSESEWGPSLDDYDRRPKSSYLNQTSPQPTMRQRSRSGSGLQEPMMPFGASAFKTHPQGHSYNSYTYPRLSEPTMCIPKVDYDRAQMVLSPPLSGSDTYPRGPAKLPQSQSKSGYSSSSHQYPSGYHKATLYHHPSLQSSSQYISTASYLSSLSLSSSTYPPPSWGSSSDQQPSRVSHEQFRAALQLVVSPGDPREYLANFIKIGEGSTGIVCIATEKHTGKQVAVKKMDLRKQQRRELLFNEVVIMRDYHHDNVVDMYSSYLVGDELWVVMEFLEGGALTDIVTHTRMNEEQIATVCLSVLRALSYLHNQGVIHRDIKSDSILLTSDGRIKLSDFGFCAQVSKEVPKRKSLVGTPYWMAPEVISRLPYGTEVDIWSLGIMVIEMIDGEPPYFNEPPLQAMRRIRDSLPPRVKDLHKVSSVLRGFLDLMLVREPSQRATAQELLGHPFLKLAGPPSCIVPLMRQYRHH
The target of assay [12] is Serine/threonine-protein kinase PAK 6 (Homo sapiens) (UniProt Q9NQU5).
Serine/threonine-protein kinase PAK 6 (Homo sapiens), sequence (Q9NQU5 whole entry, looked up): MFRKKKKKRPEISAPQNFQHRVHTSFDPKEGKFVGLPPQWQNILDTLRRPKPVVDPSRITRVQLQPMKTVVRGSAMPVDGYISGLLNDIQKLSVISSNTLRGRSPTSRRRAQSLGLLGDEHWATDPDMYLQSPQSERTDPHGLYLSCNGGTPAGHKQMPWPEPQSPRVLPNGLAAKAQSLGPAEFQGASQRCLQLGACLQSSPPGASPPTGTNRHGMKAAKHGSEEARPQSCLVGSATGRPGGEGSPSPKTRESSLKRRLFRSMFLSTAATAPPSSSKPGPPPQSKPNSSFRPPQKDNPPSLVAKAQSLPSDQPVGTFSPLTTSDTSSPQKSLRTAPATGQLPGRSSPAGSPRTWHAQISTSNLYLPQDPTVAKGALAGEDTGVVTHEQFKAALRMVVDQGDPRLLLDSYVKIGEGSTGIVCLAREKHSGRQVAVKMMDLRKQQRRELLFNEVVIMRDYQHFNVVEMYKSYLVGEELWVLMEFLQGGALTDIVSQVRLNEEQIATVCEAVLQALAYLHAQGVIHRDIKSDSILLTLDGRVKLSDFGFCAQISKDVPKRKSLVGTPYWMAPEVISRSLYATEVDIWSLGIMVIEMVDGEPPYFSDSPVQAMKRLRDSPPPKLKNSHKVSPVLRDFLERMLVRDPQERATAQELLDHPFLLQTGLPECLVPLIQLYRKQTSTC
The target of assay [13] is Serine/threonine-protein kinase pim-1 (Homo sapiens) (UniProt P11309).
Serine/threonine-protein kinase pim-1 (Homo sapiens), sequence (P11309 whole entry, looked up): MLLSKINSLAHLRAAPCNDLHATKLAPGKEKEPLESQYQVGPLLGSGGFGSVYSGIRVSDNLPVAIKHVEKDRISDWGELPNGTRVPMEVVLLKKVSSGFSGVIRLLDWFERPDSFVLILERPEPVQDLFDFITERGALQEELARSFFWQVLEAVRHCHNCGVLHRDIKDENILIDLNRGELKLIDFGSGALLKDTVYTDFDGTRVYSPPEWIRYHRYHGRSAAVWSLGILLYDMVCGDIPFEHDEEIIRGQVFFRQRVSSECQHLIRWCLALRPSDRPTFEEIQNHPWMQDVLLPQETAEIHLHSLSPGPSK
In assay [14] the target is Serine/threonine-protein kinase pim-2 (Homo sapiens, UniProt Q9P1W9).
Serine/threonine-protein kinase pim-2, sequence (Q9P1W9 whole entry, looked up): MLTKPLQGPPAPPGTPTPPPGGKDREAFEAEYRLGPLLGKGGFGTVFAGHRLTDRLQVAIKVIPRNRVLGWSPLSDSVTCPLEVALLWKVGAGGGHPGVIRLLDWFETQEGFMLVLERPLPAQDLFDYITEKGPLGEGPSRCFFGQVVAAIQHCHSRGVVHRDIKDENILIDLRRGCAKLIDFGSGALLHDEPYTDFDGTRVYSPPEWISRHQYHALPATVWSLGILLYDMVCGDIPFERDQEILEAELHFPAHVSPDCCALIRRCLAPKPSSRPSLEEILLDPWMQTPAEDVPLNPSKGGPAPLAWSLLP
Assay [15] deals with Serine/threonine-protein kinase PLK1 (Homo sapiens) (UniProt P53350).
Serine/threonine-protein kinase PLK1 (Homo sapiens), sequence (P53350 whole entry): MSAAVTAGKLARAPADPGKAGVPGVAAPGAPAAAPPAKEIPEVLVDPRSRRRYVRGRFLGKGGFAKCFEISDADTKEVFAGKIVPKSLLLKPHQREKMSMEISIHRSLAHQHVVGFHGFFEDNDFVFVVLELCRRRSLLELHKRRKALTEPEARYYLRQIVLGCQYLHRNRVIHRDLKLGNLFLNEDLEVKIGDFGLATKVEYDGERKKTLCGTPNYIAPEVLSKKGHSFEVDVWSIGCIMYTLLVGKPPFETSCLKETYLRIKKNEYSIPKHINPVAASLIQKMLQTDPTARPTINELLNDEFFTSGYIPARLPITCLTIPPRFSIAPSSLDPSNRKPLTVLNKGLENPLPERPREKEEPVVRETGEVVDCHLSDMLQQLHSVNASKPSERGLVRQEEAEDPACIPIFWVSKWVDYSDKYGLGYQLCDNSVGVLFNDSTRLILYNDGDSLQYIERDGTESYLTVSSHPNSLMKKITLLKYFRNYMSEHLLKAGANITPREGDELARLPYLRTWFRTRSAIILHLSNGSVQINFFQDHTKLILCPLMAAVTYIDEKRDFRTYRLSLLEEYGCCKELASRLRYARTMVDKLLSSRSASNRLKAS
The target of assay [16] is T1, Serine/threonine-protein kinase PLK4 (Homo sapiens) (UniProt O00444).
T1 sequence (whole entry): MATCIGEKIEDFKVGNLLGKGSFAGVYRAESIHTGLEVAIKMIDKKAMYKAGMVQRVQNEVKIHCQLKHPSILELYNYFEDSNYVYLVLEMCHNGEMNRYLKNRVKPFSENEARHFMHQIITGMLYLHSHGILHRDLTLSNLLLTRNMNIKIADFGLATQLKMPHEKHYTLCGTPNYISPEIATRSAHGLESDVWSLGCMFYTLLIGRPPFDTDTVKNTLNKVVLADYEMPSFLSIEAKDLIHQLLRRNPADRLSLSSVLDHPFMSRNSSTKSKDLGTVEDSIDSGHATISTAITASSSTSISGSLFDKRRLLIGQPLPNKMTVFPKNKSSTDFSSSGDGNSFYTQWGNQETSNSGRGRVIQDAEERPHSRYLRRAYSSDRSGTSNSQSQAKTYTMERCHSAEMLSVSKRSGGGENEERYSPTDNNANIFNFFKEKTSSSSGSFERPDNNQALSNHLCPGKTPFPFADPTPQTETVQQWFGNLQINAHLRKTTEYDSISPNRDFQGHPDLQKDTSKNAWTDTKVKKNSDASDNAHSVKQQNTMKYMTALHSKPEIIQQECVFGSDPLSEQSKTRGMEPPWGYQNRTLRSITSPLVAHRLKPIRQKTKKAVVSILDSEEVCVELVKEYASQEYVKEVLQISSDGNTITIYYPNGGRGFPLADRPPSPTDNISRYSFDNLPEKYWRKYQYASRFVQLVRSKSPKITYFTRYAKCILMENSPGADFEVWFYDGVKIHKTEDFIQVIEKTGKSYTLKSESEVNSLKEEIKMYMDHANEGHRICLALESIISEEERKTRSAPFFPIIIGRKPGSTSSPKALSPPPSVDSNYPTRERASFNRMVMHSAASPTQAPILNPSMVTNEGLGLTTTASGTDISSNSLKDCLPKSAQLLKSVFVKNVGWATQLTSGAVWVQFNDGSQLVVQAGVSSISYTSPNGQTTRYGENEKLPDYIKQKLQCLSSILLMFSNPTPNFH

Assay [17] deals with Serine/threonine-protein kinase 10 (Homo sapiens) (UniProt O94804).
The target in assay [18] is T2, Serine/threonine-protein kinase 17A (Homo sapiens) (UniProt Q9UEE5).
T2 sequence (whole entry): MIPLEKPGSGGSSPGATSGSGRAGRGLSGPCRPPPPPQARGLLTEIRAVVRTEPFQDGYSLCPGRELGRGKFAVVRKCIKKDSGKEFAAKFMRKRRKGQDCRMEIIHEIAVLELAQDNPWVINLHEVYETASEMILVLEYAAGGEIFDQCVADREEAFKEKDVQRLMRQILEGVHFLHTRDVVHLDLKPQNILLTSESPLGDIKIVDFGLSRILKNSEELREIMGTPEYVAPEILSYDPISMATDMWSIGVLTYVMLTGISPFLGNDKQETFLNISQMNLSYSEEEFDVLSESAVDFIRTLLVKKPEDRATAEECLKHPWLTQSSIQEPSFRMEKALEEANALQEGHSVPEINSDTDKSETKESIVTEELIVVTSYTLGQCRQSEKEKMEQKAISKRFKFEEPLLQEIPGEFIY

The target in assay [19] is Serine/threonine-protein kinase 26 (Homo sapiens) (UniProt Q9P289).
Serine/threonine-protein kinase 26 (Homo sapiens), sequence (Q9P289 2-416 limits assumed): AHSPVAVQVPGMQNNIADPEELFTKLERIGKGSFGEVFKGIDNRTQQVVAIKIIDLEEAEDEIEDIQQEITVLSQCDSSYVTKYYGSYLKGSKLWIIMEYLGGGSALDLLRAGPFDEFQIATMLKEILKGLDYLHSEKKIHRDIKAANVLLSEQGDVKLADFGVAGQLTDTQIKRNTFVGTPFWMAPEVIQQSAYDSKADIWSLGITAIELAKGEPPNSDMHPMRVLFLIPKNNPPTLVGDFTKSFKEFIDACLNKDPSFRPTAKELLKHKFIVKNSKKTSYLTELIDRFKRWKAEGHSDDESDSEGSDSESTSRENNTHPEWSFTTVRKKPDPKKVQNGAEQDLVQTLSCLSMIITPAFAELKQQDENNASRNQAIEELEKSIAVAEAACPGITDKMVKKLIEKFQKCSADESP

Casein kinase I isoform gamma-3 (Homo sapiens), sequence (Q9Y6M4 whole entry, looked up, canonical isoform): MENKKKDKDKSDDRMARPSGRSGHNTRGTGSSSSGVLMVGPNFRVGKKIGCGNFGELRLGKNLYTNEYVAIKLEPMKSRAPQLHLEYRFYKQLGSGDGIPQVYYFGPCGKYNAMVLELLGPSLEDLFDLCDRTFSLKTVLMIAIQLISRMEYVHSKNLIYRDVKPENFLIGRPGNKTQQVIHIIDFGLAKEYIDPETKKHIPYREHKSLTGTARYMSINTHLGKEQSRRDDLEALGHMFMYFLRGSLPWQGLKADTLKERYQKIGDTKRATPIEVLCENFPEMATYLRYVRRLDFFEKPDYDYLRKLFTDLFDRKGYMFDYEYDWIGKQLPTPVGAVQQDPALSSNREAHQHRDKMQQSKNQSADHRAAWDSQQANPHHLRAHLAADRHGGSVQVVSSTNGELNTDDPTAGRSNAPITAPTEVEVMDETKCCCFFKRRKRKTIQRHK

`CCCCc1c(-c2ccc(O)cc2)[nH]c2nccnc12` [ALOISINE A]: the ΔTm in [1] is 2.2 °C; in assay [2], 0.1 °C; in [3], 4.7 °C; in assay [4] it was 0.1 °C; in assay [5], 5.7 °C; in [6] it was 1.5 °C. Also, the ΔTm in [7] is 2.2 °C; in assay [8] it was 2.5 °C; in assay [9], 0.5 °C; in [10] it was 3 °C; in assay [11], 2.2 °C; in [12] it was 0.5 °C. The ΔTm amounted to 1.7 °C in [13]; 4.5 °C in assay [14]; 2.8 °C in [15]; 3.4 °C in assay [16]; 5 °C in assay [17]; 2.9 °C in [18]. In addition, the ΔTm in [19] turned out to be 4.1 °C.
As for `CCCNC(=O)Nc1ccc(Oc2ncnc3cc(OC)c(OC)cc23)cc1Cl` [KRN-633], the ΔTm was 2.1 °C in [1]; 0.8 °C in assay [2]; -0.4 °C in [3]; 0.8 °C in assay [4]; 2.4 °C in [5]; 0.1 °C in [6]. In addition, the ΔTm in [7] is 0.5 °C; in [8], -3.7 °C; in assay [9], 1 °C; in [10], 1.2 °C; in assay [11], -0.2 °C; in assay [12], 0.8 °C. For the same compound, the ΔTm in [13] was 0.5 °C; in assay [14] it was 0.2 °C; in assay [15] it was 0.1 °C; in assay [16], 1 °C; in [17], 0.4 °C; in [18] it was 2.7 °C. Further, in assay [19], the thermal shift (ΔTm) was -0.1 °C.
Take `CN1CCc2[nH]c(=S)c(C#N)c(-c3cccs3)c2C1`: the ΔTm in [1] was 0.4 °C; in [2], 0.8 °C; in assay [3], 0 °C; in assay [4], 11.1 °C; in assay [5], 5.3 °C; in assay [6] it was -0.2 °C. In addition, the ΔTm in assay [7] was 5.2 °C; in assay [8] it was 0.2 °C; in assay [9], -0.1 °C; in assay [10] it was 1.2 °C; in [11], 0.8 °C; in assay [12], 0 °C. In addition, the ΔTm in assay [13] was 1.4 °C; in assay [14], -0.3 °C; in [15], 2.4 °C; in assay [16] it was 10.7 °C; in [17], 7.2 °C; in assay [18], 0.9 °C.
`CC(C)c1nn(-c2c(Cl)cccc2Cl)c2nc(Cc3ccc(OCCO)cc3)[nH]c(=O)c12`: the ΔTm turned out to be 1 °C in [1]; 0.4 °C in [2]; 10.6 °C in assay [3]; 0.2 °C in assay [4]; 3.6 °C in assay [5]; 0.6 °C in assay [6]. For the same compound, the ΔTm in assay [7] is -0.3 °C; in [8], 1.3 °C; in assay [9] it was 0.2 °C; in assay [10], 0 °C; in assay [11], 6.2 °C; in [12], -0.1 °C. For the same compound, the ΔTm is 0 °C in assay [13]; -0.1 °C in assay [14]; 1.4 °C in assay [15]; 2.9 °C in assay [16]; 0.6 °C in assay [17]; 0.1 °C in assay [18]. In addition, in assay [19], the ΔTm was found to be 0.5 °C.
Consider `COc1cc2ncnc(Nc3ccc(NC(=O)c4ccccc4)cc3)c2cc1OC` [ANILINOQUINAZOLINE1], for which the ΔTm in assay [1] was 0.8 °C; in [2] it was 0 °C; in assay [3] it was -0.5 °C; in assay [4], 0 °C; in assay [5] it was 7.3 °C; in assay [6] it was 0.4 °C. Further, the ΔTm in assay [7] is 0.5 °C; in assay [8], 0.3 °C; in assay [9], 1.9 °C; in assay [10] it was -0.1 °C; in [11], -0.2 °C; in assay [12], 0.6 °C. Further, the ΔTm in [13] was 0.7 °C; in assay [14] it was 0.3 °C; in [15] it was -0.5 °C; in [16] it was 0.5 °C; in assay [17], 0.1 °C; in [18], 2.1 °C. For the same compound, the ΔTm in assay [19] came out at 0 °C.
`COc1ccc(Cl)cc1NC(=O)Nc1cc(C)nc2ccccc12`: the ΔTm is -0.4 °C in [1]; -0.5 °C in assay [2]; -0.6 °C in assay [3]; 1.6 °C in assay [4]; 2.4 °C in [5]; -0.1 °C in [6]. Moreover, the ΔTm was -0.1 °C in [7]; 0.9 °C in [8]; 0.5 °C in assay [9]; 2.1 °C in assay [10]; 2.6 °C in [11]; 1.9 °C in assay [12]. The ΔTm in [13] is -1.1 °C; in assay [14], 1 °C; in assay [15] it was 0.9 °C; in assay [16], 3.4 °C; in [17] it was 0.6 °C; in assay [18], -0.1 °C.
On to `Cc1nc(N)sc1-c1ccnc(Nc2cccc([N+](=O)[O-])c2)n1`, for which the ΔTm in [1] is 3 °C; in [2], 1.4 °C; in assay [4], 3.5 °C; in assay [5], 9.7 °C; in assay [6], 4 °C; in assay [7], 5.1 °C. Moreover, the ΔTm in assay [8] is 1.3 °C; in [9] it was 4.8 °C; in [10], 2.1 °C; in assay [11] it was 7.1 °C; in assay [12], -1.1 °C; in assay [13], 1.1 °C. For the same compound, the ΔTm is 8.1 °C in assay [14]; 4.6 °C in assay [15]; 2.3 °C in [16]; 1.5 °C in assay [17]; 1.9 °C in assay [18]; 0.4 °C in assay [19].
In the case of `CC(C)[C@H](CO)Nc1nc(Nc2cc(N)cc(Cl)c2)c2ncn(C(C)C)c2n1` [AMINOPURVALANOL], the ΔTm in assay [1] amounted to 0.3 °C; in assay [2] it was 0.5 °C; in assay [4], 2.7 °C; in [5] it was 7.5 °C; in [6] it was 6.1 °C; in assay [7], 1.8 °C. The thermal shift (ΔTm) in assay [8] is 1.1 °C; in assay [9], 0.1 °C; in assay [10], 1.5 °C; in assay [11] it was 0.3 °C; in assay [12] it was 0.1 °C; in [13], 1.2 °C. Further, the ΔTm was -0.1 °C in [14]; 1 °C in assay [15]; 6.2 °C in [16]; 2.7 °C in assay [17]; 1.6 °C in assay [18].
